Measured values as given in patent publication US8119633B2, “Substituted sulfonamide compounds” (Gruenenthal GmbH, priority 2007, dated 2012).

How the values were obtained:
[1] = molecular target: T1, bradykinin receptor 1 (B1R) of the rat (Rattus norvegicus, UniProt P97583); assay: Functional study on the bradykinin receptor 1 (B1R), rat: FLIPR Ca2+ influx assay; type: cell-based; details: test substance 10 μM; CHO K1 cells transfected with rat B1R; Des-Arg9-bradykinin at EC80; Ca2+ influx (Fluo-4, FLIPR); read-out: B1R antagonism, rat [10 μM] % inhibition
T1 construct: expressed in transfected cells; host or cells: CHO K1 cells
T1 sequence (P97583 1-337): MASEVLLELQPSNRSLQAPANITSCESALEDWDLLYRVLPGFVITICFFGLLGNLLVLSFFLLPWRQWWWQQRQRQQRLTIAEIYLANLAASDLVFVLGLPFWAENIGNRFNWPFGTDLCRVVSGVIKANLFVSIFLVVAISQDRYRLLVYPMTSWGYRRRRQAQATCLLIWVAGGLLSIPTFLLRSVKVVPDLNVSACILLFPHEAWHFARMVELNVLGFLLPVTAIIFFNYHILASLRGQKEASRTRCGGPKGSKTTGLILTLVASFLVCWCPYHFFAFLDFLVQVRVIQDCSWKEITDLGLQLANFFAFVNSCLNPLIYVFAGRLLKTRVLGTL
Description: (§1) The agonistic or antagonistic action of substances can be determined on the bradykinin receptor 1 (B1R) of the species human and rat using the following assay. According to this assay, the Ca^2+ influx through the channel is quantified with the aid of a Ca^2+-sensitive dye (Fluo-4 type, Molecular Probes Europe BV, Leiden, Netherlands) using a Fluorescent Imaging Plate Reader (FLIPR, Molecular Devices, Sunnyvale, USA).
(§2) Chinese hamster ovary cells (CHO K1 cells) which have been stably transfected with the human B1R gene (hB1R cells) or with the B1R gene of the rat (rB1R cells) are used. For functional studies, the cells are plated out on black 96-well plates having a clear base (BD Biosciences, Heidelberg, Germany or Greiner, Frickenhausen, Germany) in a density of 20,000-35,000 cells/well. The cells are incubated overnight at 37° C. and with 5% CO2 in culture medium (hB1R cells: Nutrient Mixture Ham's F12, Gibco Invitrogen GmbH, Karlsruhe, Germany or DMEM, Sigma-Aldrich, Taufkirchen, Germany; rB1R cells: D-MEM/F12, Gibco Invitrogen GmbH, Karlsruhe, Germany), with 10 vol. % FBS (fetal bovine serum, Gibco Invitrogen GmbH, Karlsruhe, Germany or PAN Biotech GmbH, Aidenbach, Germany).
(§3) On the following day, the cells are loaded for 60 minutes at 37° C. with 2.13 μM Fluo-4 (Molecular Probes Europe BV, Leiden, Netherlands) in HBSS buffer (Hank's buffered saline solution, Gibco Invitrogen GmbH, Karlsruhe, Germany) with 2.5 mM probenecid (Sigma-Aldrich, Taufkirchen, Germany) and 10 mM HEPES (Sigma-Aldrich, Taufkirchen, Germany). The plates are then washed twice with HBSS buffer, and HBSS buffer additionally containing 0.1% BSA (bovine serum albumin; Sigma-Aldrich, Taufkirchen, Germany), 5.6 mM glucose and 0.05% gelatin (Merck KGaA, Darmstadt, Germany) is added to the plates. After incubation for a further 20 minutes at room temperature, the plates are inserted into the FLIPR for Ca^2+ measurement. Alternatively, washing is carried out with buffer A (15 mM HEPES, 80 mM NaCl, 5 mM KCl, 1.2 mM CaCl2, 0.7 mM MgSO4, 2 g/l glucose, 2.5 mM probenecid) followed by loading with buffer A with added 2.5 μM Fluo-4 and 0.025% Pluronic F127 (Sigma-Aldrich, Taufkirchen, Germany). The cells are then washed twice with buffer A and incubated for 30 minutes at room temperature with buffer A additionally containing 0.05% BSA and 0.05% gelatin and are then inserted into the FLIPR for Ca^2+ measurement.
(§4) The Ca^2+-dependent fluorescence is measured before and after the addition of substances (λex=488 nm, λem=540 nm). Quantification is carried out by measuring the highest fluorescence intensity (FC, fluorescence counts) over time.
(§5) The FLIPR protocol consists of two substance additions. Test substances (10 μM) are first pipetted onto the cells and the Ca^2+ influx is compared with the control (hB1R: Lys-Des-Arg^9-bradykinin>=0.5 nM; rB1R: Des-Arg^9-bradykinin 10 μM). This gives the activation in %, based on the Ca^2+ signal after addition of Lys-Des-Arg^9-bradykinin (>=0.5 nM) or Des-Arg^9-bradykinin (10 μM).
(§6) After 10-20 minutes' incubation, Lys-Des-Arg^9-bradykinin (hB1R) or Des-Arg^9-bradykinin (rB1R) is applied in the concentration of the EC80, and the influx of Ca^2+ is likewise determined.
(§7) Antagonists lead to suppression of the Ca^2+ influx. The % inhibition compared with the maximum achievable inhibition is calculated.
(§8) In order to determine the IC50 value, the substances are added in various concentrations. Duplicate or triplicate determinations (n=2 or n=3) are carried out, and these are repeated in at least one further independent experiment (N>=2).

[2] = molecular target: T2, human bradykinin receptor 1 (B1R) (Homo sapiens, UniProt P46663); assay: Functional study on the bradykinin receptor 1 (B1R), human: FLIPR Ca2+ influx assay; type: cell-based; details: test substance 10 μM; CHO K1 cells transfected with human B1R; Lys-Des-Arg9-bradykinin at EC80; Ca2+ influx (Fluo-4, FLIPR); read-out: B1R antagonism, human [10 μM] % inhibition
T2 construct: expressed in transfected cells; host or cells: CHO K1 cells
T2 sequence (P46663 1-353): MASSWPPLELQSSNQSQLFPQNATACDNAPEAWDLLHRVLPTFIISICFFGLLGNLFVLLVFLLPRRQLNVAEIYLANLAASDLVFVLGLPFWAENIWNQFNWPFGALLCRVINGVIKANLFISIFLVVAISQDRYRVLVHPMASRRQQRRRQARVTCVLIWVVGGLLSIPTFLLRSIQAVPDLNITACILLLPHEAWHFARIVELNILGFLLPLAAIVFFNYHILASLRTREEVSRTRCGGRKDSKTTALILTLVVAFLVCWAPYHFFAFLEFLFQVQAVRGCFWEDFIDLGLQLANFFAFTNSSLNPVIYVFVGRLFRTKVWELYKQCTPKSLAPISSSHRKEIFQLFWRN
Description: Functional Study on the Human Bradykinin Receptor 1 (B1R)
as §1, §2, §3, §4, §5, §6, §7, §8

Row | SMILES | inhibition at 10 µM [1] [%] | inhibition at 10 µM [2] [%]
1 | COc1ccc(S(=O)(=O)N2CCc3ccccc3C2CC(=O)NCC2CCC(C(c3cccs3)N(C)C)CC2)cc1 (stereo not drawn) [Example 21, N-[4-(dimethylamino-thiophen-2-yl-methyl)-cyclohexylmethyl]-2-[2-(4-methoxybenzenesulfonyl)-1,2,3,4-tetrahydro-isoquinolin-1-yl]-acetamide] | 41 | 52.9
2 | CN(C)C(c1ccc(Cl)cc1)C1CCC(CCNC(=O)c2ccccc2N(C)S(=O)(=O)c2ccc(Cl)c(Cl)c2)CC1 (stereo not drawn) [Example 43, N-(2-{4-[(4-chloro-phenyl)-dimethylamino-methyl]-cyclohexyl}-ethyl)-2-[(3,4-dichloro-benzenesulfonyl)-methyl-amino]-benzamide] | 11 | 28.9
3 | CN(C)C(CCc1ccccc1)C1CCC(CNC(=O)CC2c3ccccc3CCN2S(=O)(=O)c2ccc(Cl)c(Cl)c2)CC1 (stereo not drawn) [Example 30, 2-[2-(3,4-dichloro-benzenesulfonyl)-1,2,3,4-tetrahydro-isoquinolin-1-yl]-N-[4-(1-dimethylamino-3-phenyl-propyl)-cyclohexylmethyl]-acetamide] | 58 | 75.7
4 | COc1ccc(S(=O)(=O)N2CCc3ccccc3C2CC(=O)NC2CCC(C(c3cccc(F)c3)N(C)C)CC2)cc1 (stereo not drawn) [Example 13, N-{4-[dimethylamino-(3-fluoro-phenyl)-methyl]-cyclohexyl}-2-[2-(4-methoxybenzenesulfonyl)-1,2,3,4-tetrahydro-isoquinolin-1-yl]-acetamide] | 76 | 64.4
5 | CN(C)C(c1cccc(F)c1)C1CCC(CNC(=O)CC2c3ccccc3CCN2S(=O)(=O)c2ccc(Cl)c(Cl)c2)CC1 (stereo not drawn) [Example 28, 2-[2-(3,4-dichloro-benzenesulfonyl)-1,2,3,4-tetrahydro-isoquinolin-1-yl]-N-{4-[dimethylamino-(3-fluoro-phenyl)-methyl]-cyclohexylmethyl}-acetamide] | 34 | 26.3
6 | CN(C)C(c1ccc(F)cc1)C1CCC(CCNC(=O)c2ccccc2N(C)S(=O)(=O)c2ccc(Cl)c(Cl)c2)CC1 (stereo not drawn) [Example 45, 2-[(3,4-dichloro-benzenesulfonyl)-methyl-amino]-N-(2-{4-[dimethylamino-(4-fluoro-phenyl)-methyl]-cyclohexyl}-ethyl)-benzamide] | 26 | 75.7
7 | CN(C)C(c1cccc(F)c1)C1CCC(NC(=O)CC2c3ccccc3CCN2S(=O)(=O)c2ccc(Cl)c(Cl)c2)CC1 (stereo not drawn) [Example 26, 2-(2-(3,4-dichlorophenylsulfonyl)-1,2,3,4-tetrahydroisoquinolin-1-yl)-N-(4-((dimethylamino)(3-fluorophenyl)methyl)cyclohexyl)acetamide] | 73 | 97.4
8 | CN(C)C(c1ccccc1)C1CCC(CNC(=O)c2ccccc2N(C)S(=O)(=O)c2ccc(Cl)c(Cl)c2)CC1 (stereo not drawn) [Example 38, 2-[(3,4-dichloro-benzenesulfonyl)-methyl-amino]-N-[4-(dimethylamino-phenylmethyl)-cyclohexylmethyl]-benzamide] | 15 | 17.9
9 | COc1ccc(S(=O)(=O)N2CCc3ccccc3C2CC(=O)NCC2CCC(C(c3cccc(F)c3)N(C)C)CC2)cc1 (stereo not drawn) [Example 16, N-{4-[dimethylamino-(3-fluoro-phenyl)-methyl]-cyclohexylmethyl}-2-[2-(4-methoxy-benzenesulfonyl)-1,2,3,4-tetrahydro-isoquinolin-1-yl]-acetamide] | 57 | 35.5
10 | CN(C)C(c1cccc(F)c1)C1CCC(NC(=O)c2ccccc2N(C)S(=O)(=O)c2ccc(Cl)c(Cl)c2)CC1 (stereo not drawn) [Example 36, 2-[(3,4-dichloro-benzenesulfonyl)-methyl-amino]-N-{4-[dimethylamino-(3-fluoro-phenyl)-methyl]-cyclohexyl}-benzamide] | 67 | 64.1
11 | CN(C)C(c1ccc(F)cc1)C1CCC(CCNC(=O)CC2c3ccccc3CCN2S(=O)(=O)c2ccc(Cl)c(Cl)c2)CC1 (stereo not drawn) [Example 35, 2-[2-(3,4-dichloro-benzenesulfonyl)-1,2,3,4-tetrahydro-isoquinolin-1-yl]-N-(2-{4-[dimethylamino-(4-fluoro-phenyl)-methyl]-cyclohexyl}-ethyl)-acetamide] | 49 | 79.5
12 | CN(C)C(c1ccc(Cl)cc1)C1CCC(CNC(=O)c2ccccc2N(C)S(=O)(=O)c2ccc(Cl)c(Cl)c2)CC1 (stereo not drawn) [Example 41, N-{4-[(4-chloro-phenyl)-dimethylamino-methyl]-cyclohexylmethyl}-2-[(3,4-dichloro-benzenesulfonyl)-methyl-amino]-benzamide] | 25 | 22
13 | COc1ccc(S(=O)(=O)N2CCc3ccccc3C2CC(=O)NCCC2CCC(C(c3cccs3)N(C)C)CC2)cc1 (stereo not drawn) [Example 25, N-{2-[4-(dimethylamino-thiophen-2-yl-methyl)-cyclohexyl]-ethyl}-2-[2-(4-methoxy-benzenesulfonyl)-1,2,3,4-tetrahydro-isoquinolin-1-yl]-acetamide] | 68 | 79.5
14 | CN(C)C(c1ccc(F)cc1)C1CCC(NC(=O)c2ccccc2N(C)S(=O)(=O)c2ccc(Cl)c(Cl)c2)CC1 (stereo not drawn) [Example 37, 2-[(3,4-dichloro-benzenesulfonyl)-methyl-amino]-N-{4-[dimethylamino-(4-fluoro-phenyl)-methyl]-cyclohexyl}-benzamide] | 64 | 82.2
15 | CN(C)C(c1cccc(F)c1)C1CCC(NC(=O)C2Cc3ccccc3N2S(=O)(=O)c2ccc(Cl)c(Cl)c2)CC1 (stereo not drawn) [Example 92, 1-(3,4-dichlorophenylsulfonyl)-N-(4-((dimethylamino)(3-fluorophenyl)methyl)cyclohexyl)indoline-2-carboxamide] | -13 | 26
